Assay results from patent US20260317319A1, “NOVEL ERGOLINES AND METHODS OF TREATING MOOD DISORDERS” (Gilgamesh Pharma Inc., priority 2023, published 2026).
Like-named read-outs stand apart in the source and are kept apart here.

How the values were obtained:
in vitro [1] = format: in vitro ADME, human; conditions: HLM 0.50 mg/mL, NADPH 1 mM, 1 μM compound, pH 7.4, 37° C., 60 min
5-HT2A receptor [2] = biological target: T1, 5-HT2A receptor (Homo sapiens, UniProt P28223); assay: cell-based; format: cell-based; parameters: expressed in transfected cells; host or cells: HEK293, stably transfected; conditions: HEK293, agonist, Ca2+ flux, HEK293, max dose; read-out: 5-HT2A % Act @ Max Dose
T1 sequence (P28223 whole entry): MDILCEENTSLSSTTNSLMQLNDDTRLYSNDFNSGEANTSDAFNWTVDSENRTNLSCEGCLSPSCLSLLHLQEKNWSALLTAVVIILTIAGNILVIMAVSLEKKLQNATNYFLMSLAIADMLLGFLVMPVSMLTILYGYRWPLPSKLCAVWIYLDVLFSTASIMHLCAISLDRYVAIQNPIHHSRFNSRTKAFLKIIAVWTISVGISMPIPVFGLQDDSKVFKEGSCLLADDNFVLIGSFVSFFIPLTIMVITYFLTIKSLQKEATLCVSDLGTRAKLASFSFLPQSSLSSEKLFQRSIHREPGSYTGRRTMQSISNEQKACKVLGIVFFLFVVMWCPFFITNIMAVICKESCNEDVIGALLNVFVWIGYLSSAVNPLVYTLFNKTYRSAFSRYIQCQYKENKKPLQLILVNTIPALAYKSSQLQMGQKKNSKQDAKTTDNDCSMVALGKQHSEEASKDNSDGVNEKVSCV
Method in brief: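 FLIPR Ca2+ flux agonist assay using stably transfected HEK293 (5-HT2A, 5-HT2B) or CHO cells co-expressing Gα15 (5-HT1A). Cells loaded with Fluo-4 Direct plus 2.5 mM probenecid (final) for 50 min at 37 °C, then compound added and fluorescence read.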

5-HT1A receptor = biological target: T2, 5-HT1A receptor (Homo sapiens, UniProt P08908); assay: cell-based; conditions: CHO, agonist, Ca2+ flux, CHO cells with Gα15, max dose; read-out: 5-HT1A % Act @ Max Dose
T2 construct: expressed in transfected cells; host or cells: CHO cells, stably transfected
T2 sequence (P08908 1-422): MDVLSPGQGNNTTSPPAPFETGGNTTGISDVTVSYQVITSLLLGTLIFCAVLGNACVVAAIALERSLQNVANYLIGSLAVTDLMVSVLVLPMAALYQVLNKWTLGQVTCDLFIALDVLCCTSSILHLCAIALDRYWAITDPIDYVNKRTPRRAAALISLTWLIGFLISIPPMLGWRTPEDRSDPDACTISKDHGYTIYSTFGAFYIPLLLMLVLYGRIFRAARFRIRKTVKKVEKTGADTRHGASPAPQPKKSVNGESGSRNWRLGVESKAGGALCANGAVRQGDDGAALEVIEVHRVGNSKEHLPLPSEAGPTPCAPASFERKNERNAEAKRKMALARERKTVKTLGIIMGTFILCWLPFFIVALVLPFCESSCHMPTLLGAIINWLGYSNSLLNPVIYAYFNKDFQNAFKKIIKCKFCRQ
Method in brief: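 Receptor agonism was assessed as intracellular calcium mobilization in stably transfected cells, with CHO cells additionally carrying Gα15 for the 5-HT1A readout. Calcium was monitored with Fluo-4 Direct dye.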

5-HT1B receptor = biological target: T3, 5-HT1B receptor (Homo sapiens, UniProt P28222); assay: cAMP accumulation functional assay at 5-HT1B; format: cell-based; conditions: agonist, cAMP accumulation, max dose; read-out: 5-HT1B % Act @ Max Dose
T3 construct: expressed in transfected cells
T3 sequence (P28222 whole entry): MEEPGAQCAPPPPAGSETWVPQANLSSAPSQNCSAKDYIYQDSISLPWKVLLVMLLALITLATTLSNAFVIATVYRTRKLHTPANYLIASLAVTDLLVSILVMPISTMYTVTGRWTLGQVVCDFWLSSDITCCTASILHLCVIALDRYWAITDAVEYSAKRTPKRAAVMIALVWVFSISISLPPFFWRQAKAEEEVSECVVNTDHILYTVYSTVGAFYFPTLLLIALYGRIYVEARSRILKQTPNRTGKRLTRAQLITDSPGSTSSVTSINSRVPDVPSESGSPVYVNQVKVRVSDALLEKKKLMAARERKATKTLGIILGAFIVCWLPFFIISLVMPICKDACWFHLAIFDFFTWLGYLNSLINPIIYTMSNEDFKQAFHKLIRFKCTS
Method in brief: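 Agonist activity measured as cAMP accumulation in cells stably transfected with human 5-HT1B. Cells incubated 60 min at RT, then detection reagent added for a further 60 min at RT before plate reading.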

in vitro [3] = format: in vitro ADME, rat; conditions: RLM (male Sprague-Dawley) 0.50 mg/mL, NADPH 1 mM, 1 μM compound, pH 7.4, 37° C., 60 min
Description: RLM Stability Pooled RLM from male Sprague-Dawley rats (Xenotech R1000) were used.

[4] = biological target: T4, Alpha1A adrenergic receptor (Homo sapiens, UniProt P35348); assay: Ca2+ flux functional assay at Alpha1A; format: cell-based; conditions: agonist, Ca2+ flux, max dose; read-out: Alpha 1A % Act @ Max Dose
T4 construct: expressed in transfected cells
T4 sequence (P35348 1-466): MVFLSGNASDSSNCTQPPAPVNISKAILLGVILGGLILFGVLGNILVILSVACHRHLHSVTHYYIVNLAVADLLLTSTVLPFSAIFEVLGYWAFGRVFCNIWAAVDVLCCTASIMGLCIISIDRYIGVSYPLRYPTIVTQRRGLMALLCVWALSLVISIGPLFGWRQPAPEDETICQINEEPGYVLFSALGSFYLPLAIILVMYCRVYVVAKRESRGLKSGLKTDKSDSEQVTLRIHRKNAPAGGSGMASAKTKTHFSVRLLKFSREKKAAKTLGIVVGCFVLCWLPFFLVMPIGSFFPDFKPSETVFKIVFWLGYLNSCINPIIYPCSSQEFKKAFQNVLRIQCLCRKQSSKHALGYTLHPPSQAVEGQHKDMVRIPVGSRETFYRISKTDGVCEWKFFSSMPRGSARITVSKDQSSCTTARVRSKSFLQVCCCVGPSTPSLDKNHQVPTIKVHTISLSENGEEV
Method: Disclosed compounds were tested for agonist activity at several adrenergic (Alpha1A and Alpha2A) and dopamine (D1 and D2) receptor subtypes using Ca^2+ flux functional assays, with the results summarized in Table 6. Selectivity for the 5-HT2A receptor over these other targets varied depending on the specific target and compound.
Functional Assays at Adrenergic and Dopamine Receptors. Agonist activity at Alpha1A, Alpha2A, D1, and D2 receptors was determined using a FLIPR Ca^2+ flux assay at WuXi AppTec (Hong Kong) Limited according to their standard protocols. Briefly, stably transfected cells expressing the receptor of interest were grown and plated in a 384 well plate and incubated at 37° C. and 5% CO2 overnight. A solution of 250 mM probenecid in 1 mL FLIPR assay buffer was prepared fresh. This was combined with a fluorescent dye (Fluo-4 Direct™) to make a final assay concentration of 2.5 mM. Compounds were diluted 1:3.16 for 10 points and 750 nL was added to a 384 well compound plate using ECHO along with 30 μL assay buffer. The fluorescent dye was then added to the assay plate along with assay buffer to a final volume of 40 μL. The cell plate was incubated for 50 min at 37° C. and 5% CO2 and placed into the FLIPR Tetra along with the compound plate. 10 μL of references and compounds were then transferred from the compound plate into the cell plate and the fluorescent signal was read.

in vitro [5] = format: in vitro ADME, mouse; conditions: MLM (male CD-1) 0.50 mg/mL, NADPH 1 mM, 1 μM compound, pH 7.4, 37° C., 60 min
Description: MLM Stability Pooled MLM from male CD-1 mice (BIOIVT M00501) were used.

5-HT2B receptor = biological target: T5, 5-HT2B receptor (Homo sapiens, UniProt P41595); assay: cell-based; format: cell-based; conditions: HEK293, agonist, Ca2+ flux, HEK293, max dose; read-out: 5-HT2B % Act @ Max Dose
T5 construct: expressed in transfected cells; host or cells: HEK293, stably transfected
T5 sequence (P41595 whole entry): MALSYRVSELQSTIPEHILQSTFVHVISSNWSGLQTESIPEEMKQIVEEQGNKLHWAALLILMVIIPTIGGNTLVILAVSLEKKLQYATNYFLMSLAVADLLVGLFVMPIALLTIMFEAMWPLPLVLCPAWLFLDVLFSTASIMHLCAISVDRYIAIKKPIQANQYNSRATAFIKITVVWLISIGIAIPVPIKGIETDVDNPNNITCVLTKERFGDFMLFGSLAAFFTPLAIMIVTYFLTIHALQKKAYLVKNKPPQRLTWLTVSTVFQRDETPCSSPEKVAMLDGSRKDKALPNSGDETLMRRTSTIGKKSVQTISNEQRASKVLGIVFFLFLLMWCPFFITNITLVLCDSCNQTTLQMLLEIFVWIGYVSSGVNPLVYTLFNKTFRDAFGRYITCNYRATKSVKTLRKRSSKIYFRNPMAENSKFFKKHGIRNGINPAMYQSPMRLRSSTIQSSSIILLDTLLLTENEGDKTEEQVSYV
Method in brief: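 FLIPR Tetra fluorescence read-out of calcium flux after compound addition. Receptor-expressing stable lines were used (HEK293 for 2A/2B; CHO with Gα15 for 1A), dye-loaded with Fluo-4 Direct and 2.5 mM final probenecid, 50 min at 37 °C.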

5-HT2A receptor [6] = biological target: T1, 5-HT2A receptor; assay: biochemical; format: binding; parameters: expressed in transfected cells; host or cells: HEK293, stably transfected; conditions: [3H]ketanserin 1 nM; HEK293 stable cell line; 1 h, 25 °C
Method in brief: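 Affinity was measured in radioligand binding experiments using [^3H]ketanserin as the labelled ligand, following methods adapted from published procedures.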

in vitro [7] = format: in vitro ADME, human; conditions: for metabolised: human, microsomes, role: substrate, metabolite 83 formed in HLM, read-out: Metabolite Formation (percent formation of metabolite 83)
Method: The ability of deuteration in compound 68 to attenuate formation of metabolite 83 compared to the same transformation of the non-deuterated compound 18 was also determined.
HLM Stability. Pooled HLM from adult male and female donors (Corning 452117) were used.

Sprague Dawley rats = assay: Forced swim test (FST) in rats; format: in vivo, rat; conditions: rat FST, dose 20 mg/kg, positive control; average of 3 independent experiments
Method: Compound 1 induced antidepressant-like effects in the forced swim test (FST) in rats with a 23.5-h pre-treatment time (FIG. 2).
Animals. Male Sprague Dawley rats, aged 9-10 weeks, were used in this experiment. Animals were housed in groups of 2 under controlled temperature (22±3° C.) and relative humidity (30-70%) conditions, with 12-hour light/dark cycles, and with ad libitum food and water. This study was carried out in strict accordance with the requirements of the Committee for the Purpose of Control and Supervision of Experiments on Animals (CPCSEA), India. All efforts were made to minimize suffering.
Forced Swim Test (FST). […] Rats were handled for about 2 min daily for the 5 days prior to the beginning of the experimental procedure. On the first day of the experiment (i.e., Day 0), post randomization, training swim sessions (Swim 1) were conducted between 12:00 and 18:00 h with all animals by placing rats in individual glass cylinders (46 cm tall×20 cm in diameter) containing 23-25° C. water 30 cm deep for 15 minutes. At the conclusion of Swim 1, animals were dried with paper towels, placed in heated drying cages for 15 minutes, and then returned to their home cages. Animals were then administered the appropriate drug or vehicle treatment(s), as described above. For clarity, a compound administration time of 23.5 h before Swim 2 means 0.5 h after the start of Swim 1 and 0.25 h after the completion of Swim 1 (i.e., immediately after return to the home cage). On Day 1 (i.e., 24 h after start of Swim 1), animals performed the test swim (Swim 2) for a period of 5 min but otherwise under the same conditions as Swim 1. During all swim sessions, the water was changed between each animal.
Behavioral scoring was conducted by observers who were blind to the treatment groups. Animals were continuously observed during Swim 2 and the total time spent engaging in the following behaviors was recorded: immobile, swimming, and climbing. A rat was judged to be immobile when it remained floating in the water without struggling and was making only those movements necessary to keep its head above water. A rat was judged to be swimming when it made active swimming motions, more than necessary to merely maintain its head above water (e.g., moving around in the cylinder). A rat was judged to be climbing when it made active movements with its forepaws in and out of the water, usually directed against the walls.
Statistical Analysis. The data points shown represent the mean±standard error of the mean (SEM). Analysis was performed using GraphPad Prism 6. Comparisons between groups were performed using the one-way analysis of variance (ANOVA), followed by Dunnett's test for comparisons to vehicle.
Additional disclosed compounds were tested in the forced swim test (FST) in rats according to the procedure described in Example 58 (compounds 18 and 19 administered in 10% DMSO in saline).

Q: Which results are given for `CCN(CC)C(=O)[C@@H]1C=C2c3cccc4[nH]cc(c34)C[C@H]2N(CC2CC2)C1` [Compound 13, (6aR,9R)—N,N-diethyl-7-(cyclopropylmethyl)-4,6,6a,7,8,9-hexahydroindolo[4,3-fg]quinoline-9-carboxamide]?
A: half-life (t1/2) (in vitro [1]): 21.1 min; Emax (5-HT2A receptor [2]): 92.6%; Emax (5-HT1A receptor): 83.1%; Emax (5-HT1B receptor): 90.4%; half-life (t1/2) (in vitro [3]): 27.7 min; Emax [4]: 80.8%; half-life (t1/2) (in vitro [5]): 3.7 min; Emax (5-HT2B receptor): 91.8%

Q: What does the source list for `[2H]C([2H])(c1cccc(OC)c1)N1C[C@H](C(=O)N(CC)CC)C=C2c3cccc4[nH]cc(c34)C[C@H]21` [Compound 68, (6aR,9R)—N,N-diethyl-7-((3-methoxyphenyl)methyl-d2)-4,6,6a,7,8,9-hexahydroindolo[4,3-fg]quinoline-9-carboxamide]?
A: microsomal CLint (in vitro [1]; human, microsomes, read-out: Intrinsic clearance (Clint)): 130 µL/min/mg; half-life (in vitro [1]; human, microsomes, read-out: half-life (t1/2)): 10.6 min; Ki (5-HT2A receptor [6]): 3.02 nM; formation of metabolite 83 (in vitro [7]; formation of 83 from 68 compared to formation from 18): substantially attenuated compared to formation of 83 from 18; metabolised (in vitro [7]; T = 0): 0.1%; metabolised (in vitro [7]; T = 5): 2.9%; metabolised (in vitro [7]; T = 15): 4.3%; metabolised (in vitro [7]; T = 30): 5.7%; metabolised (in vitro [7]; T = 45): 5.8%; metabolised (in vitro [7]; T = 60): 6.2%; microsomal CLint (in vitro [3]; rat, microsomes, read-out: Intrinsic clearance (Clint)): 360 µL/min/mg; half-life (in vitro [3]; rat, microsomes, read-out: half-life (t1/2)): 3.9 min; microsomal CLint (in vitro [5]; mouse, microsomes, read-out: Intrinsic clearance (Clint)): 436 µL/min/mg; half-life (in vitro [5]; mouse, microsomes, read-out: half-life (t1/2)): 3.2 min

Q: For `CNCCCN1c2ccccc2CCc2ccccc21` [Desipramine, desipramine, reference compound], which “Time Immobile” value (Sprague Dawley rats) is on record?
A: 60.93 s
